These results are taken from patent US11420970B1 (NOVARTIS AG, priority 2019, dated 2022).

The subject of test [1] is cellular H3K36me2 level in multiple myeloma cell line KMS11 (t(4;14)+). The test is described as follows: H3K36me2 cellular FRET assay in KMS11-Par line. The test is classed as cell-based. The settings on record: Homo sapiens, KMS-11, KMS11-Par line, cellular H3K36me2 level, FRET; read-out: H3K36me2 FRET in KMS11-Par. The protocol:
H3K36Me2 Cellular FRET Assay in KMS11-Par Line
Fluorescence Resonance Energy Transfer (FRET) assay was used to test the ability of candidate compound to reduce cellular H3K36me2 level in multiple myeloma cell line KMS11 (t(4;14)+) (Horizon Discovery Ltd.).
Cells were treated with tested compounds at the desired concentration for 48 hours. […] Histone extract was incubated with Eu labeled anti-H3K36me2 antibody (abcam #ab ab9049) and d2 labeled anti-H3 antibody (abcam #ab1791) for 1 hour at room temperature. A Eu labeled anti-H3 antibody (CISBIO #64CUS000) was used for loading control. The abundancy of H3K36me2 or total H3 was measured by fluorescence signal on Perkin Elmer Envison machine.

For the next test, the target named is NSD2 [1-1365] (Homo sapiens (Human), UniProt O96028). The test is described as follows: LC-MS/MS-based NSD2 enzymatic assay (SAH production). The test is classed as biochemical. The settings on record: read-out: NSD2 IC50. In short, it runs like this:
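SAH formed was measured by LC-MS/MS using d4-SAH as internal standard and an SAH calibration curve. Compounds were preincubated 20 min with NSD2 [1-1365] and SAM; mouse-liver nucleosome then started a 90 min room-temperature reaction (8 nM enzyme, 1 μM SAM, 400 nM nucleosome final, pH 8.0), stopped with TFA.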

Test [2] concerns cellular H3K36me2 level in thyroid carcinoma cell line CGTH-W-1 (NSD2 E1099K). The test is described as follows: H3K36me2 cellular ELISA assay in CGTH-W-1 line. The test is classed as cell-based. The settings on record: Homo sapiens, CGTH-W-1, 72 h, read-out: H3K36me2 ELISA in CGTH-W-1. The procedure, abridged: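 After 72 h compound treatment of NSD2 E1099K-mutant CGTH-W-1 cells, H3K36me2 and total H3 were quantified by ELISA with chemiluminescent read-out. A parallel-seeded plate gave cell viability by CellTiter-Glo.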
For orientation: In an ELISA, binding on a coated surface is turned into a signal by an enzyme label.

For test [3], the system named is cellular H3K36me2 level in multiple myeloma cell line KMS11 (t(4;14)+). In words: H3K36me2 cellular ELISA assay in KMS11-Par line. Format: cell-based. The settings on record: Homo sapiens, KMS-11; KMS11-Par line, ELISA, 72 hours; read-out: H3K36me2 ELISA in KMS11-Par. In short, it runs like this: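 After 72 h compound exposure, HCl-extracted histones from KMS11 (t(4;14)+) cells were probed by ELISA for H3K36me2 against total H3 with a chemiluminescence read-out. Cells were plated at 1,250/well in Opti-MEM plus B-27 and N2 the day before. A parallel CellTiter-Glo plate tracked viability.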

Where [4] appears, read: NSD2 biochemical activity, class symbols.

Molecules are shown by their SMILES. Where two headings read alike, the source gives them in different places.

NSD2 [1-1365], sequence (O96028 whole entry): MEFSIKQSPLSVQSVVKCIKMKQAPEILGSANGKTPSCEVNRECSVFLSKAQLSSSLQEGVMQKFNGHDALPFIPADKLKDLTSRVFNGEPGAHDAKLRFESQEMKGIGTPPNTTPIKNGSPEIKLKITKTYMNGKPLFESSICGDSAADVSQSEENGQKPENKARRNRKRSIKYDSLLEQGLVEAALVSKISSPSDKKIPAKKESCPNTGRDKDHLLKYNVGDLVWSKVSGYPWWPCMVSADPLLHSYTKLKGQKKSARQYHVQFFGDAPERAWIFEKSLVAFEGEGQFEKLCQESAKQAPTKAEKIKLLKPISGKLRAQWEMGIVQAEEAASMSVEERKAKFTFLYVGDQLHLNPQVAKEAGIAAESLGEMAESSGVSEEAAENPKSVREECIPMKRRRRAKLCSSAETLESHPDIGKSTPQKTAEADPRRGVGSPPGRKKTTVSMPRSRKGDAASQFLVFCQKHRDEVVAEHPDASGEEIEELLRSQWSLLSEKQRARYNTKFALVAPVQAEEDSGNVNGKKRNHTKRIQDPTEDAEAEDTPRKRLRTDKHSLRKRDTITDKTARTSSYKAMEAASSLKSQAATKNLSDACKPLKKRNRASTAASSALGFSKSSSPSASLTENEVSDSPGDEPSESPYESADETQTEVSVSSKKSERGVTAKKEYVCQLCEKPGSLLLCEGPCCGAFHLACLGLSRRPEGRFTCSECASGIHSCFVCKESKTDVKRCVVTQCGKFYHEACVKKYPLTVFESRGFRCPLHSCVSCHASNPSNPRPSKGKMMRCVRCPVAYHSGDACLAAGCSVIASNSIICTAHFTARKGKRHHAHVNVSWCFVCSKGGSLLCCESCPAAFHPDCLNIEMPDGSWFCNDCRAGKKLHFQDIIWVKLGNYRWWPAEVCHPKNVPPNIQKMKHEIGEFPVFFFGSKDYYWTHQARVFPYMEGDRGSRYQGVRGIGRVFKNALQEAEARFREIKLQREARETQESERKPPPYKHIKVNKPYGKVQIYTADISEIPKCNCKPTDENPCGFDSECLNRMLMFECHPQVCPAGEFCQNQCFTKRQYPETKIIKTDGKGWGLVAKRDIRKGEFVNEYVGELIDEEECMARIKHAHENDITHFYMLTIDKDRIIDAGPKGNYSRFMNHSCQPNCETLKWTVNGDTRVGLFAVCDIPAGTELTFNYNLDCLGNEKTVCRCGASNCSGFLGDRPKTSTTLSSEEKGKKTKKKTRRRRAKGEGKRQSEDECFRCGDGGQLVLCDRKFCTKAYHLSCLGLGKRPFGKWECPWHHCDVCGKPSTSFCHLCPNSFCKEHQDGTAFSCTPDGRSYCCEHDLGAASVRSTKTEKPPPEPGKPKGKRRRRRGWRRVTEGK

In the case of `Nc1ncnc2c1ncn2Cc1cc(-c2ccccc2F)ncc1N1CC[C@@H](F)[C@@H](N)C1` [Example 2, 9-((5-((3S,4R)-3-amino-4-fluoropiperidin-1-yl)-2-(2-fluorophenyl)pyridin-4-yl)methyl)-9H-purin-6-amine], the IC50 is 11100 nM in test [1] and 10 to 1000 nM at NSD2 [1-1365] (setting [4]).
The corresponding values for `Nc1ncnc2c1ncn2Cc1cc(-c2cccc(F)c2)ncc1N1CCC[C@@H](N)C1` [Example 4, (R)-9-((5-(3-aminopiperidin-1-yl)-2-(3-fluorophenyl)pyridin-4-yl)methyl)-9H-purin-6-amine] are 4120 nM and 10 to 1000 nM.
The corresponding values for `COc1ccc(-c2cc(Cn3cnc4c(N)ncnc43)c(N3CCC[C@@H](N)C3)cn2)c(F)c1` [Example 6, (R)-9-((5-(3-aminopiperidin-1-yl)-2-(2-fluoro-4-methoxyphenyl)pyridin-4-yl)methyl)-9H-purin-6-amine] are 10000 nM and 10 to 1000 nM.
Regarding `N#Cc1ccc(-c2cc(Cn3cnc4c(N)ncnc43)c(N3CCC[C@@H](N)C3)cn2)cc1Cl` [Example 7, (R)-4-(4-((6-amino-9H-purin-9-yl)methyl)-5-(3-aminopiperidin-1-yl)pyridin-2-yl)-2-chlorobenzonitrile], the IC50 was 15100 nM in test [1] and 10 to 1000 nM on NSD2 [1-1365] (setting [4]).
The corresponding values for `Nc1ncnc2c1ncn2Cc1cc(-c2cccc(F)c2)ncc1N1CC[C@@H](F)[C@@H](N)C1` [Example 8, 9-((5-((3S,4R)-3-amino-4-fluoropiperidin-1-yl)-2-(3-fluorophenyl)pyridin-4-yl)methyl)-9H-purin-6-amine] are 5260 nM and 10 to 1000 nM.
The corresponding values for `COC[C@@H]1[C@H](N)CCCN1c1cnc(-c2ccc(C#N)c(F)c2)cc1Cn1cnc2c(N)ncnc21` [Example 9] are 9900 nM and 10 to 1000 nM.
The matching figures for `COc1ccc(-c2cc(Cn3cnc4c(N)ncnc43)c(N3CC[C@@H](F)[C@@H](N)C3)cn2)c(F)c1` [Example 10, 9-((5-((3S,4R)-3-amino-4-fluoropiperidin-1-yl)-2-(2-fluoro-4-methoxyphenyl)pyridin-4-yl)methyl)-9H-purin-6-amine]: 7630 nM and 10 to 1000 nM.
With `COc1ccc(-c2cc(Cn3cnc4c(N)ncnc43)c(N3CCC[C@@H](N)C3)cn2)cc1` [Example 11, (R)-9-((5-(3-aminopiperidin-1-yl)-2-(4-methoxyphenyl)pyridin-4-yl)methyl)-9H-purin-6-amine], the IC50 in test [1] was 11200 nM; at NSD2 [1-1365] (setting [4]) it was 10 to 1000 nM.
The matching figures for `Nc1ncnc2c1ncn2Cc1cc(-c2cccc(Cl)c2)ncc1N1CC[C@@H](F)[C@@H](N)C1` [Example 12, 9-((5-((3S,4R)-3-amino-4-fluoropiperidin-1-yl)-2-(3-chlorophenyl)pyridin-4-yl)methyl)-9H-purin-6-amine]: 12200 nM and 10 to 1000 nM.
With `N#Cc1ccc(-c2cc(Cn3cnc4c(N)ncnc43)c(N3CC[C@@H](F)[C@@H](N)C3)cn2)cc1F` [Example 13, 4-(5-((3S,4R)-3-amino-4-fluoropiperidin-1-yl)-4-((6-amino-9H-purin-9-yl)methyl)pyridin-2-yl)-2-fluorobenzonitrile], the figures for the IC50 (in test [1]; on NSD2 [1-1365] (setting [4])) were 20700 nM and 10 to 1000 nM, respectively.
The corresponding values for `COc1ccc(-c2cc(Cn3cnc4c(N)ncnc43)c(N3CCC(OC)C(N)C3)cn2)cc1F` (stereo not drawn) [Example 15, 9-((5-(3-amino-4-methoxypiperidin-1-yl)-2-(3-fluoro-4-methoxyphenyl)pyridin-4-yl)methyl)-9H-purin-6-amine] are 18700 nM and 10 to 1000 nM.
The matching figures for `Nc1ncnc2c1ncn2Cc1cc(-c2cccc(F)c2)ncc1N1CCC(F)(F)C(N)C1` (stereo not drawn) [Example 17, 9-((5-(3-amino-4,4-difluoropiperidin-1-yl)-2-(3-fluorophenyl)pyridin-4-yl)methyl)-9H-purin-6-amine]: 154000 nM and greater than 1000 nM.
On to `COc1ccc(-c2cc(Cn3cnc4c(N)ncc(Cl)c43)c(N3CCC[C@@H](N)C3)cn2)cc1F` [Example 19, (R)-1-((5-(3-aminopiperidin-1-yl)-2-(3-fluoro-4-methoxyphenyl)pyridin-4-yl)methyl)-7-chloro-1H-imidazo[4,5-c]pyridin-4-amine], for which the IC50 was 3900 nM in test [1] and 10 to 1000 nM at NSD2 [1-1365] (setting [4]).
The matching figures for `COc1ccc(-c2cc(Cn3cnc4c(N)ncnc43)c(N3CCC[C@@](C)(N)C3)cn2)cc1F` [Example 20, (R)-9-((5-(3-amino-3-methylpiperidin-1-yl)-2-(3-fluoro-4-methoxyphenyl)pyridin-4-yl)methyl)-9H-purin-6-amine]: 2950 nM and 10 to 1000 nM.
Take `COc1ccc(-c2cc(Cn3cnc4c(N)nccc43)c(N3CCC[C@@H](N)C3)cn2)cc1F` [Example 21, (R)-1-((5-(3-aminopiperidin-1-yl)-2-(3-fluoro-4-methoxyphenyl)pyridin-4-yl)methyl)-1H-imidazo[4,5-c]pyridin-4-amine]: the IC50 in test [1] was 20800 nM; on NSD2 [1-1365] (setting [4]), 10 to 1000 nM.
Consider `Nc1ncnc2c1ncn2Cc1cc(-c2cc(F)c(F)cc2C(F)F)ncc1N1CCC[C@](N)([C@@H]2COCCO2)C1` [Example 291, 9-((5-((R)-3-amino-3-((R)-1,4-dioxan-2-yl)piperidin-1-yl)-2-(2-(difluoromethyl)-4,5-difluorophenyl)pyridin-4-yl)methyl)-9H-purin-6-amine], for which the IC50 in test [2] is 812 nM; in test [3] it was 1690 nM; at NSD2 [1-1365], 10 to 1000 nM.
Turning to `CC(=C(F)F)[C@@]1(N)CCCN(c2cnc(-c3ccc(F)c(F)c3)cc2Cn2cnc3c(N)ncnc32)C1` [Example 293, (S)-9-((5-(3-amino-3-(1,1-difluoroprop-1-en-2-yl)piperidin-1-yl)-2-(3,4-difluorophenyl)pyridin-4-yl)methyl)-9H-purin-6-amine], the IC50 in test [2] is 1300 nM; in test [3] it was 3210 nM; on NSD2 [1-1365], 10 to 1000 nM.
The matching figures for `Nc1ncnc2c1ncn2Cc1cc(-c2ccc(F)c(F)c2)ncc1N1CCC[C@](N)([C@H](O)C(F)(F)F)C1` [Example 299, (S)-1-((R)-3-amino-1-(4-((6-amino-9H-purin-9-yl)methyl)-6-(3,4-difluorophenyl)pyridin-3-yl)piperidin-3-yl)-2,2,2-trifluoroethan-1-ol]: 1160 nM, 9830 nM and 10 to 1000 nM.
With `C#C[C@@]1(N)CCCN(c2cnc(-c3ccc(F)c(F)c3)cc2Cn2cnc3c(N)ncnc32)C1` [Example 304, (S)-9-((5-(3-amino-3-ethynylpiperidin-1-yl)-2-(3,4-difluorophenyl)pyridin-4-yl)methyl)-9H-purin-6-amine], the figures for the IC50 (in test [2]; in test [3]; at NSD2 [1-1365]) were 101 nM, 592 nM and 10 to 1000 nM, respectively.
The matching figures for `COc1ccc(-c2cc(Cn3cnc4c(N)ncnc43)c(N3CCC[C@](N)(C(F)F)C3)cn2)cc1F` [Example 305, (R)-9-((5-(3-amino-3-(difluoromethyl)piperidin-1-yl)-2-(3-fluoro-4-methoxyphenyl)pyridin-4-yl)methyl)-9H-purin-6-amine]: 3400 nM, 4800 nM and 10 to 1000 nM.
